In patent US5621010A, “Urea derivatives and their use as ACAT inhibitors” (Nisshin Flour Milling Co., Ltd., priority 1993, dated 1997):

Experiments:
[1] = system: ACAT (liver microsome fractions of male rabbits); test: ACAT inhibitory activity: formation of labelled cholesteryl esters from [1-14C]oleoyl-CoA and endogenous cholesterol; type: biochemical, rabbit; conditions: compound added at 10^-7 M
Experimental: The enzyme preparation, ACAT was prepared from liver microsme fractions of male rabbits according to the method of E. E. Largis et al. (Journal of Lipid Research, Vol. 30, pages 681-690, 1989). The activity was calculated by assaying the amount of the labelled cholesteryl esters formed from [1-^14 C]oleoyl-CoA and endogenous cholesterol according to the method of Kazuichi NATORI et al. (Japan J. Pharmacol., Vol. 42, pages 517-523, 1986).
The result is shown in Table 1, in which percent inhibition of the formation of the labelled cholesteryl esters with a compound added at 10^-7 M is indicated as index for the ACAT inhibitory activity.

[2] = system: Human LDL; test: Antioxidative activity: inhibition of MDA formation from LDL incubated with cupric sulfate; type: biochemical; conditions: compound 10^-5 M; cupric sulfate 5×10^-6 M; 5 hrs; compared with control
Experimental: Human LDL was incubated in the presence of cupric sulfate (5×10^-6 M) and in the presence or absence of a compound (10^-5 M) for 5 hrs. After the incubation, the peroxidation of low-density lipoproteins (LDL) is evaluated by the formation of malondialdehyde (MDA), which is a sort of lipid peroxides according to the method of Simon J. T. Mao et al. (J. Med. Chem., Vol. 34, pages 298-302, 1991). Activity of the compound is shown by percent inhibition of the MDA formation as compared with control.

Compound | ACAT Inhibition [1] | Antioxidant Activity (percent inhibition of the MDA formation) [2]
CC(C)(C)c1cc(/C=C/c2ccccc2NC(=O)N2CCC[C@H]3CCCC[C@H]32)cc(C(C)(C)C)c1O (relative stereo) [Example 159] | 97% | 
CC(C)(C)c1cc(CCc2cc(F)cc(F)c2NC(=O)N2CCC[C@H]3CCCC[C@H]32)cc(C(C)(C)C)c1O (relative stereo) [Example 166] | 100% | 
CCCCCCOc1ccc(NC(=O)Nc2ccccc2CCc2cc(C(C)(C)C)c(O)c(C(C)(C)C)c2)cc1 [Example 1, N-[2-(3,5-di-tert-butyl-4-hydroxyphenethyl)phenyl]-N'-(4-hexyloxyphenyl)urea] | 83% | 94%
CC(C)(C)c1cc(CCc2ccccc2NC(=O)NC2CCCCCC2)cc(C(C)(C)C)c1O [Example 4, N-[2-(3,5-di-tert-butyl-4-hydroxyphenethyl)phenyl]-N'-cycloheptylurea] | 95% | 98%
CC(C)(C)c1cc(CCc2ccccc2NC(=O)NCCc2ccccc2)cc(C(C)(C)C)c1O [Example 5, N-[2-(3,5-di-tert-butyl-4-hydroxyphenethyl)phenyl]-N'-phenethylurea] | 89% | 100%
CC(C)(C)c1cc(CCc2ccccc2NC(=O)NCC(c2ccccc2)c2ccccc2)cc(C(C)(C)C)c1O [Example 6, N-[2-(3,5-di-tert-butyl-4-hydroxyphenethyl)phenyl]-N'-(2,2-diphenylethyl)urea] | 99% | 98%
CCCCCCCNC(=O)Nc1ccccc1CCc1cc(C(C)(C)C)c(O)c(C(C)(C)C)c1 [Example 12, N-[2-(3,5-di-tert-butyl-4-hydroxyphenethyl)phenyl]-N'-heptylurea] | 91% | 94%
CC(C)=CCCC(C)=CCNC(=O)Nc1ccccc1CCc1cc(C(C)(C)C)c(O)c(C(C)(C)C)c1 [Example 13, N-[2-(3,5-di-tert-butyl-4-hydroxyphenethyl)phenyl]-N'-(3,7-dimethyl-2,6-octadienyl)urea] | 90% | 92%
CC(C)(C)CC(C)(C)NC(=O)Nc1ccccc1CCc1cc(C(C)(C)C)c(O)c(C(C)(C)C)c1 [Example 14, N-[2-(3,5-di-tert-butyl-4-hydroxyphenethyl)phenyl]-N'-(2,4,4-trimethyl-2-pentyl)urea] | 93% | 98%
CCOCCCNC(=O)Nc1ccccc1CCc1cc(C(C)(C)C)c(O)c(C(C)(C)C)c1 [Example 15, N-[2-(3,5-di-tert-butyl-4-hydroxyphenethyl)phenyl]-N'-(3-ethoxypropyl)urea] | 76% | 99%
CC(C)(C)c1cc(CCc2ccccc2NC(=O)NC2CCCC2)cc(C(C)(C)C)c1O [Example 16, N-[2-(3,5-di-tert-butyl-4-hydroxyphenethyl)phenyl]-N'-cyclopentylurea] | 93% | 95%
CC(C)(C)c1cc(CCc2ccccc2NC(=O)NC2CCCCC2)cc(C(C)(C)C)c1O [Example 17, N-[2-(3,5-di-tert-butyl-4-hydroxyphenethyl)phenyl]-N'-cyclohexylurea] | 92% | 99%
CC(C)(C)c1cc(CCc2ccccc2NC(=O)NC2CCCCCCC2)cc(C(C)(C)C)c1O [Example 18, N-[2-(3,5-di-tert-butyl-4-hydroxyphenethyl)phenyl]-N'-cyclooctylurea] | 97% | 97%
CC(C)(C)c1cc(CCc2ccccc2NC(=O)NC(c2ccccc2)c2ccccc2)cc(C(C)(C)C)c1O [Example 29, N-[2-(3,5-di-tert-butyl-4-hydroxyphenethyl)phenyl]-N'-diphenylmethylurea] | 99% | 95%
CC(C)(C)c1cc(CCc2ccccc2NC(=O)NCc2ccco2)cc(C(C)(C)C)c1O [Example 30, N-[2-(3,5-di-tert-butyl-4-hydroxyphenethyl)phenyl]-N'-[(2-furyl)methyl]urea] | 84% | 92%
CCSCCNC(=O)Nc1ccccc1CCc1cc(C(C)(C)C)c(O)c(C(C)(C)C)c1 [Example 38, N-[2-(3,5-di-tert-butyl-4-hydroxyphenethyl)phenyl]-N'-(2-ethylthioethyl)urea] | 71% | 94%
CN1CC2CC(NC(=O)Nc3ccccc3CCc3cc(C(C)(C)C)c(O)c(C(C)(C)C)c3)CC(C1)N2C (stereo not drawn) [Example 39, N-[2-(3,5-di-tert-butyl-4-hydroxyphenethyl)phenyl]-N'-(3,9-dimethyl-3,9-diazabicyclo[3.3.1]-7-nonyl)urea] | 88% | 87%
CCCCCCCN(Cc1ccccc1)C(=O)Nc1ccccc1CCc1cc(C(C)(C)C)c(O)c(C(C)(C)C)c1 [Example 40, N-[2-(3,5-di-tert-butyl-4-hydroxyphenethyl)phenyl]-N'-benzyl-N'-heptylurea] | 96% | 98%
CC(C)(C)c1cc(CCc2ccccc2NC(=O)NCC(C)(C)c2ccc(F)cc2)cc(C(C)(C)C)c1O [Example 140, N-[2-(3,5-di-tert-butyl-4-hydroxyphenethyl)phenyl]-N'-[2-(4-fluorophenyl)-2-methylpropyl]urea] | 96% | 
CC(C)(C)c1cc(CCc2ccccc2NC(=O)NCC(C)(C)c2ccc(N3CCCC3)cc2)cc(C(C)(C)C)c1O [Example 141, N-[2-(3,5-di-tert-butyl-4-hydroxyphenethyl)phenyl]-N'-[2-[4-(1-pyrrolidinyl)phenyl]-2-methylpropyl]urea] | 86% | 
CCCN(C(=O)Nc1ccccc1CCc1cc(C(C)(C)C)c(O)c(C(C)(C)C)c1)C1CCN(Cc2ccccc2)CC1 [Example 146, N-[2-(3,5-di-tert-butyl-4-hydroxyphenethyl)phenyl]-N'-(1-benzyl-4-piperidyl)-N'-propylurea] | 85% | 
CC(C)(C)c1cc(CCc2c(F)cccc2NC(=O)NC2CCN(Cc3ccccc3)CC2)cc(C(C)(C)C)c1O [Example 155, N-[2-(3,5-di-tert-butyl-4-hydroxyphenethyl)-3-fluorophenyl]-N'-(1-benzyl-4-piperidyl)urea] | 94% | 
COc1cccc(CCc2cc(C(C)(C)C)c(O)c(C(C)(C)C)c2)c1NC(=O)NC1CCN(Cc2ccccc2)CC1 [Example 163, N-[2-(3,5-di-tert-butyl-4-hydroxyphenethyl)-6-methoxyphenyl]-N'-(1-benzyl-4-piperidyl)urea] | 81% | 
CN(C(=O)Nc1c(F)cc(F)cc1CCc1cc(C(C)(C)C)c(O)c(C(C)(C)C)c1)C1CCN(Cc2ccccc2)CC1 [Example 165, N-[2-(3,5-di-tert-butyl-4-hydroxyphenethyl)-4,6-difluorophenyl]-N'-(1-benzyl-4-piperidyl)-N'-methylurea] | 99% | 
CC(C)(C)c1cc(CCc2cc(F)cc(F)c2NC(=O)NC2CCN(Cc3ccccc3)CC2)cc(C(C)(C)C)c1O.Cl [Example 167, N-[2-(3,5-di-tert-butyl-4-hydroxyphenethyl)-4,6-difluorophenyl]-N'-(1-benzyl-4-piperidyl)urea hydrochloride] | 100% | 
Cc1cccc(CCc2cc(C(C)(C)C)c(O)c(C(C)(C)C)c2)c1NC(=O)NC1CCN(Cc2ccccc2)CC1 [Example 168, N-[2-(3,5-di-tert-butyl-4-hydroxyphenethyl)-6-methylphenyl]-N'-(1-benzyl-4-piperidyl)urea] | 93% | 
CC(C)(C)c1cc(CCc2ccccc2NC(=O)N[C@H](C(=O)OCc2ccccc2)c2ccccc2)cc(C(C)(C)C)c1O [Example 173, (S)-N-[2-(3,5-di-tert-butyl-4-hydroxyphenethyl)phenyl]-N'-(α-benzyloxycarbonyl)benzylurea] | 95% | 
CC1(C)CCCN(C(=O)Nc2ccccc2CCc2cc(C(C)(C)C)c(O)c(C(C)(C)C)c2)C1 [Example 177, 1-[N-[2-(3,5-di-tert-butyl-4-hydroxyphenethyl)phenyl]carbamoyl]-3,3-dimethylpiperidine] | 98% | 
CC(C)(C)c1cc(CCc2ccc(Cl)cc2NC(=O)NC2CCN(Cc3ccccc3)CC2)cc(C(C)(C)C)c1O [Example 183, N-[2-(3,5-di-tert-butyl-4-hydroxyphenethyl)-5-chlorophenyl]-N'-(1-benzyl-4-piperidyl)urea] | 91% | 
